Tested on: p53 signaling pathway in MT373 tumors
Assay: MT373 syngeneic sarcoma model: mouse p53 signaling pathway profiling panel
Format: in vivo

In the case of `CCn1c(C#CCNc2ccccc2)cc2cc(CNC3CCN(C)CC3)ccc21` [Compound 1, 1-Anilino-3-{1-ethyl-5-[(1-methyl-4-piperidylamino)methyl]-1H-indol-2-yl}-2-propyne], the “Sirt1 fold increase or percent reduction vs vehicle control” value (150 mg/kg BIDx1, 48 h) is reported as 13.36 fold or %, the “Stat1 fold increase or percent reduction vs vehicle control” value (150 mg/kg BIDx1, 48 h) is reported as 1.72 fold or % and the “Tnf fold increase or percent reduction vs vehicle control” value (150 mg/kg BIDx1, 48 h) is reported as 27.80 fold or %. The “Traf1 fold increase or percent reduction vs vehicle control” value (150 mg/kg BIDx1, 48 h) was 1.04 fold or %, the “Trp53bp2 fold increase or percent reduction vs vehicle control” value (150 mg/kg BIDx1, 48 h) was 8.14 fold or % and the “Trp53 fold increase or percent reduction vs vehicle control” value (150 mg/kg BIDx1, 48 h) was 22.40 fold or %. For the same compound, the “Apex1 fold increase or percent reduction vs vehicle control” value (150 mg/kg BIDx1, 72 h) was 15.68 fold or %, the “Atm fold increase or percent reduction vs vehicle control” value (150 mg/kg BIDx1, 72 h) was 18.10 fold or % and the “Atr fold increase or percent reduction vs vehicle control” value (150 mg/kg BIDx1, 72 h) was 1.15 fold or %. For the same compound, the “Bag1 fold increase or percent reduction vs vehicle control” value (150 mg/kg BIDx1, 72 h) was 21.87 fold or %, the “Bax fold increase or percent reduction vs vehicle control” value (150 mg/kg BIDx1, 72 h) was 21.38 fold or % and the “Bbc3 fold increase or percent reduction vs vehicle control” value (150 mg/kg BIDx1, 72 h) was 1.10 fold or %. For the same compound, the “Bcl2 fold increase or percent reduction vs vehicle control” value (150 mg/kg BIDx1, 72 h) was 6.74 fold or %, the “Bid fold increase or percent reduction vs vehicle control” value (150 mg/kg BIDx1, 72 h) was 2.75 fold or % and the “Birc5 fold increase or percent reduction vs vehicle control” value (150 mg/kg BIDx1, 72 h) was 24.85 fold or %. The “Brca1 fold increase or percent reduction vs vehicle control” value (150 mg/kg BIDx1, 72 h) was 17.44 fold or %, the “Brca2 fold increase or percent reduction vs vehicle control” value (150 mg/kg BIDx1, 72 h) was 19.53 fold or % and the “Btg2 fold increase or percent reduction vs vehicle control” value (150 mg/kg BIDx1, 72 h) was 23.10 fold or %. The “Casp2 fold increase or percent reduction vs vehicle control” value (150 mg/kg BIDx1, 72 h) was 8.98 fold or %, the “Ccnb1 fold increase or percent reduction vs vehicle control” value (150 mg/kg BIDx1, 72 h) was 18.77 fold or % and the “Ccne1 fold increase or percent reduction vs vehicle control” value (150 mg/kg BIDx1, 72 h) was 1.04 fold or %. For the same compound, the “Ccng1 fold increase or percent reduction vs vehicle control” value (150 mg/kg BIDx1, 72 h) was 11.26 fold or %, the “Ccnh fold increase or percent reduction vs vehicle control” value (150 mg/kg BIDx1, 72 h) was 5.78 fold or % and the “Cdc25a fold increase or percent reduction vs vehicle control” value (150 mg/kg BIDx1, 72 h) was 1.65 fold or %. The “Cdk1 fold increase or percent reduction vs vehicle control” value (150 mg/kg BIDx1, 72 h) was 22.76 fold or %, the “Cdk4 fold increase or percent reduction vs vehicle control” value (150 mg/kg BIDx1, 72 h) was 19.73 fold or % and the “Cdkn1a fold increase or percent reduction vs vehicle control” value (150 mg/kg BIDx1, 72 h) was 13.49 fold or %. The “Cdkn2a fold increase or percent reduction vs vehicle control” value (150 mg/kg BIDx1, 72 h) was 20.75 fold or %, the “Chek1 fold increase or percent reduction vs vehicle control” value (150 mg/kg BIDx1, 72 h) was 17.70 fold or % and the “Cradd fold increase or percent reduction vs vehicle control” value (150 mg/kg BIDx1, 72 h) was 16.72 fold or %. For the same compound, the “Cul9 fold increase or percent reduction vs vehicle control” value (150 mg/kg BIDx1, 72 h) was 1.54 fold or %, the “Dapk1 fold increase or percent reduction vs vehicle control” value (150 mg/kg BIDx1, 72 h) was 1.39 fold or % and the “Dnmt1 fold increase or percent reduction vs vehicle control” value (150 mg/kg BIDx1, 72 h) was 1.03 fold or %. For the same compound, the “E2f1 fold increase or percent reduction vs vehicle control” value (150 mg/kg BIDx1, 72 h) was 1.10 fold or %, the “E2f3 fold increase or percent reduction vs vehicle control” value (150 mg/kg BIDx1, 72 h) was 17.09 fold or % and the “Egfr fold increase or percent reduction vs vehicle control” value (150 mg/kg BIDx1, 72 h) was 13.15 fold or %. For the same compound, the “Egr1 fold increase or percent reduction vs vehicle control” value (150 mg/kg BIDx1, 72 h) was 38.21 fold or %, the “Ep300 fold increase or percent reduction vs vehicle control” value (150 mg/kg BIDx1, 72 h) was 2.74 fold or % and the “Ercc1 fold increase or percent reduction vs vehicle control” value (150 mg/kg BIDx1, 72 h) was 20.27 fold or %. The “Esr1 fold increase or percent reduction vs vehicle control” value (150 mg/kg BIDx1, 72 h) was 1.82 fold or %, the “Fadd fold increase or percent reduction vs vehicle control” value (150 mg/kg BIDx1, 72 h) was 1.18 fold or % and the “Fas fold increase or percent reduction vs vehicle control” value (150 mg/kg BIDx1, 72 h) was 12.10 fold or %. For the same compound, the “Fasl fold increase or percent reduction vs vehicle control” value (150 mg/kg BIDx1, 72 h) was 1.29 fold or %, the “Foxo3 fold increase or percent reduction vs vehicle control” value (150 mg/kg BIDx1, 72 h) was 1.08 fold or % and the “Gadd45a fold increase or percent reduction vs vehicle control” value (150 mg/kg BIDx1, 72 h) was 12.31 fold or %. The “Hif1a fold increase or percent reduction vs vehicle control” value (150 mg/kg BIDx1, 72 h) was 1.18 fold or %, the “Il6 fold increase or percent reduction vs vehicle control” value (150 mg/kg BIDx1, 72 h) was 61.14 fold or % and the “Jun fold increase or percent reduction vs vehicle control” value (150 mg/kg BIDx1, 72 h) was 20.41 fold or %. For the same compound, the “Kras fold increase or percent reduction vs vehicle control” value (150 mg/kg BIDx1, 72 h) was 1.08 fold or %, the “Lig4 fold increase or percent reduction vs vehicle control” value (150 mg/kg BIDx1, 72 h) was 1.27 fold or % and the “Mdm2 fold increase or percent reduction vs vehicle control” value (150 mg/kg BIDx1, 72 h) was 1.10 fold or %. The “Mdm4 fold increase or percent reduction vs vehicle control” value (150 mg/kg BIDx1, 72 h) was 13.89 fold or %, the “Mel1 fold increase or percent reduction vs vehicle control” value (150 mg/kg BIDx1, 72 h) was 17.68 fold or % and the “Mlh1 fold increase or percent reduction vs vehicle control” value (150 mg/kg BIDx1, 72 h) was 1.52 fold or %. The “Msh2 fold increase or percent reduction vs vehicle control” value (150 mg/kg BIDx1, 72 h) was 4.98 fold or %, the “Myod1 fold increase or percent reduction vs vehicle control” value (150 mg/kg BIDx1, 72 h) was 3.03 fold or % and the “Nf1 fold increase or percent reduction vs vehicle control” value (150 mg/kg BIDx1, 72 h) was 12.40 fold or %. For the same compound, the “Nfkb1 fold increase or percent reduction vs vehicle control” value (150 mg/kg BIDx1, 72 h) was 1.15 fold or %, the “Pcna fold increase or percent reduction vs vehicle control” value (150 mg/kg BIDx1, 72 h) was 21.44 fold or % and the “Pmaip1 fold increase or percent reduction vs vehicle control” value (150 mg/kg BIDx1, 72 h) was 1.41 fold or %. The “Ppm1d fold increase or percent reduction vs vehicle control” value (150 mg/kg BIDx1, 72 h) was 0.20 fold or %, the “Prkca fold increase or percent reduction vs vehicle control” value (150 mg/kg BIDx1, 72 h) was 4.15 fold or % and the “Pten fold increase or percent reduction vs vehicle control” value (150 mg/kg BIDx1, 72 h) was 1.14 fold or %. For the same compound, the “Pttg1 fold increase or percent reduction vs vehicle control” value (150 mg/kg BIDx1, 72 h) was 1.19 fold or %, the “Rb1 fold increase or percent reduction vs vehicle control” value (150 mg/kg BIDx1, 72 h) was 3.47 fold or % and the “Rela fold increase or percent reduction vs vehicle control” value (150 mg/kg BIDx1, 72 h) was 2.50 fold or %. For the same compound, the “Rprm fold increase or percent reduction vs vehicle control” value (150 mg/kg BIDx1, 72 h) was 1.51 fold or %, the “Serpinb5 fold increase or percent reduction vs vehicle control” value (150 mg/kg BIDx1, 72 h) was 1.00 fold or % and the “Sesn2 fold increase or percent reduction vs vehicle control” value (150 mg/kg BIDx1, 72 h) was 1.31 fold or %. For the same compound, the “Sfn fold increase or percent reduction vs vehicle control” value (150 mg/kg BIDx1, 72 h) was 7.33 fold or %, the “Sirt1 fold increase or percent reduction vs vehicle control” value (150 mg/kg BIDx1, 72 h) was 1.08 fold or % and the “Stat1 fold increase or percent reduction vs vehicle control” value (150 mg/kg BIDx1, 72 h) was 1.78 fold or %. For the same compound, the “Tnf fold increase or percent reduction vs vehicle control” value (150 mg/kg BIDx1, 72 h) was 1.15 fold or %, the “Traf1 fold increase or percent reduction vs vehicle control” value (150 mg/kg BIDx1, 72 h) was 1.41 fold or % and the “Trp53bp2 fold increase or percent reduction vs vehicle control” value (150 mg/kg BIDx1, 72 h) was 1.07 fold or %. For the same compound, the “Trp53 fold increase or percent reduction vs vehicle control” value (150 mg/kg BIDx1, 72 h) was 1.21 fold or %, the “Bbc3 mRNA increase” value (150 mg/kg BID×1, 24 h) was 2.27 fold and the “Birc5 mRNA decrease” value (150 mg/kg BID×1, 24 h) was 53.57%. The “Ccng1 mRNA increase” value (150 mg/kg BID×1, 24 h) was 6.84 fold, the “Cdc25c mRNA decrease” value (150 mg/kg BID×1, 24 h) was 41.75% and the “Cdk1 mRNA decrease” value (150 mg/kg BID×1, 24 h) was 64.58%. For the same compound, the “Cdkn1a mRNA increase” value (150 mg/kg BID×1, 24 h) was 10.93 fold, the “Chek1 mRNA decrease” value (150 mg/kg BID×1, 24 h) was 58.77% and the “Egfr mRNA change” value (150 mg/kg BID×1, 24 h) was 47.37%.
